# Data published in US4698352A, “4-oxo-1,4-dihydronicotinic acid derivatives, salts thereof, and antibacterial agents containing the same” (Toyama Chemical Co., Ltd., priority 1982, dated 1987).
# Where two headings read alike, the source gives them in different places.
# Columns and labels:
# Assay in all cases: Antibacterial activity (MIC), agar dilution
# Format in all cases: cell-based
# Aci. antitratus A-6 = conditions: Aci. antitratus A-6, 10^6 cells per ml, 37° C., 20 hours
# Source text: (§1) The amount of bacteria inoculated was 10^4 cells per plate (10^6 cells per ml).
# E. coli NIHJ JC-2 = tested on: E. coli NIHJ JC-2
# Source text: as §1
# E. coli TK-111 = conditions: E. coli TK-111, 10^6 cells per ml, 37° C., 20 hours
# Source text: as §1
# Ent. cloacae IID977 = tested on: Ent. cloacae IID977
# Source text: as §1
# Kl. pneumoniae Y-41 = conditions: 37° C., 20 hours
# Source text: as §1
# Kl. pneumoniae Y-50 = conditions: 10^6 cells per ml, 37° C.
# Source text: as §1
# Pro. mirabilis T-111 = conditions: 37° C.
# Source text: as §1
# Pro. morganii T-216 = conditions: 37° C.
# Source text: as §1
# Pro. vulgaris GN3027 = conditions: Pro. vulgaris GN3027, 10^6 cells per ml, 37° C., 20 hours
# Source text: as §1
# Ps. aeruginosa IFO3445 = tested on: Ps. aeruginosa IFO3445
# Source text: as §1
# Ps. aeruginosa S-68 = tested on: Ps. aeruginosa S-68
# Source text: as §1
# St. aureus FDA209P = conditions: St. aureus FDA209P, 10^6 cells per ml, 37° C., 20 hours
# Source text: as §1
# E. coli TK-3* = conditions: E. coli TK-3, penicillinase-producing, 10^6 cells per ml
# Source text: as §1
# (§2) * Penicillinase-producing bacteria
# Kl. pneumoniae Y-4* = conditions: Kl. pneumoniae Y-4, penicillinase-producing, 10^6 cells per ml
# Source text: as §1, §2
# Ps. aeruginosa GN3379* = conditions: Ps. aeruginosa GN3379, penicillinase-producing, 10^6 cells per ml
# Source text: as §1, §2
# St. aureus F-137* = tested on: St. aureus F-137*
# Source text: as §1, §2
# E. coli GN5482** = conditions: E. coli GN5482, cephalospolinase-producing, 10^6 cells per ml
# Source text: as §1
# (§3) ** Cephalospolinase-producing bacteria
# Pro. vulgaris GN76** = tested on: Pro. vulgaris GN76**
# Source text: as §1, §3
# Ps. aeruginosa GN918** = conditions: Pseudomonas aeruginosa, Ps. aeruginosa GN918, cephalospolinase-producing, 10^6 cells per ml
# Source text: as §1, §3
# [1] = Escherichia coli, NIHJJC2, 20 h, E. coli NIHJ JC-2, 10^6 cells per ml, 37° C., 20 hours, read-out: MIC
# [2] = Escherichia coli, TK111, 20 h, read-out: MIC
# [3] = Enterobacter cloacae, IID977, 20 h, Ent. cloacae IID977, 10^6 cells per ml, 37° C., 20 hours, read-out: MIC
# [4] = Klebsiella pneumoniae, Y41, 10^6 cells per ml, read-out: MIC
# [5] = Klebsiella pneumoniae, Y50, 20 h, read-out: MIC
# [6] = Proteus mirabilis, T111, 20 h, 10^6 cells per ml
# [7] = Morganella morganii, T216, 20 h, 10^6 cells per ml
# [8] = Proteus vulgaris, GN3027, 20 h, read-out: MIC
# [9] = Pseudomonas aeruginosa, Ps. aeruginosa IFO3445, 10^6 cells per ml, 37° C., 20 hours, read-out: MIC
# [10] = Pseudomonas aeruginosa, S68, Ps. aeruginosa S-68, 10^6 cells per ml, 37° C., 20 hours, read-out: MIC
# [11] = Staphylococcus aureus, FDA209P, 20 h, read-out: MIC
# [12] = Escherichia coli, 20 h, read-out: MIC
# [13] = Klebsiella pneumoniae, 20 h, read-out: MIC
# [14] = Pseudomonas aeruginosa, 20 h, read-out: MIC
# [15] = Staphylococcus aureus, 20 h, St. aureus F-137, penicillinase-producing, 10^6 cells per ml, read-out: MIC
# [16] = Proteus vulgaris, 20 h, Pro. vulgaris GN76, cephalospolinase-producing, 10^6 cells per ml, read-out: MIC
# [17] = Proteus mirabilis, T111, 10^6 cells per ml, 20 hours, read-out: MIC
# [18] = Morganella morganii, T216, 10^6 cells per ml, 20 hours, read-out: MIC
SMILES,"MIC (Aci. antitratus A-6; 20 h, read-out: MIC)",MIC (E. coli NIHJ JC-2; [1]),MIC (E. coli TK-111; [2]),MIC (Ent. cloacae IID977; [3]),MIC (Kl. pneumoniae Y-41; [4]),MIC (Kl. pneumoniae Y-50; [5]),MIC (Pro. mirabilis T-111; [6]),MIC (Pro. morganii T-216; [7]),MIC (Pro. vulgaris GN3027; [8]),MIC (Ps. aeruginosa IFO3445; [9]),MIC (Ps. aeruginosa S-68; [10]),MIC (St. aureus FDA209P; [11]),MIC (E. coli TK-3*; [12]),MIC (Kl. pneumoniae Y-4*; [13]),MIC (Ps. aeruginosa GN3379*; [14]),MIC (St. aureus F-137*; [15]),MIC (E. coli GN5482**; [12]),MIC (Pro. vulgaris GN76**; [16]),"MIC (Ps. aeruginosa GN918**; 20 h, read-out: MIC)",MIC (Pro. mirabilis T-111; [17]),also measured
Cc1cc(O)ccc1-n1cc(C(=O)O)c(=O)cc1C1CC=CCC1 (stereo not shown),0.2 µg/mL,0.39 µg/mL,0.1 µg/mL,0.78 µg/mL,1.56 µg/mL,0.39 µg/mL,1.56 µg/mL,1.56 µg/mL,≤ 0.05 µg/mL,6.25 µg/mL,6.25 µg/mL,0.2 µg/mL,0.78 µg/mL,1.56 µg/mL,6.25 µg/mL,0.1 µg/mL,0.1 µg/mL,0.39 µg/mL,0.78 µg/mL,–,–
Cn1ccc2cc(-c3cc(=O)c(C(=O)O)cn3-c3ccc(O)cc3F)ccc21,≤ 0.05 µg/mL,≤ 0.05 µg/mL,≤ 0.05 µg/mL,0.39 µg/mL,0.39 µg/mL,0.2 µg/mL,–,–,≤ 0.05 µg/mL,1.56 µg/mL,1.56 µg/mL,0.05 µg/mL,0.2 µg/mL,0.78 µg/mL,3.13 µg/mL,≤ 0.05 µg/mL,≤ 0.05 µg/mL,0.39 µg/mL,0.78 µg/mL,0.39 µg/mL,MIC (Pro. morganii T-216; [18]): 0.39 µg/mL
CN(C)c1ccc(-c2cc(=O)c(C(=O)O)cn2-c2cccc(O)c2)cc1,0.39 µg/mL,0.39 µg/mL,0.1 µg/mL,0.78 µg/mL,1.56 µg/mL,0.39 µg/mL,3.13 µg/mL,1.56 µg/mL,0.2 µg/mL,12.5 µg/mL,6.25 µg/mL,0.2 µg/mL,0.39 µg/mL,3.13 µg/mL,6.25 µg/mL,0.2 µg/mL,≤ 0.05 µg/mL,0.78 µg/mL,12.5 µg/mL,–,–
CC(=O)Oc1ccc(-n2cc(C(=O)OCCN(C)C)c(=O)cc2-c2ccc(N(C)C)cc2)cc1 [drawing 38],–,–,–,–,–,–,–,–,–,–,–,–,–,–,–,–,–,–,–,–,"MIC (Aci. antitratus A-6): 0.39 µg/mL; MIC (E. coli NIHJ JC-2; E. coli NIHJ JC-2, 10^6 cells per ml, 37° C., 20 hours): 0.39 µg/mL; MIC (E. coli TK-111): 0.2 µg/mL; MIC (Ent. cloacae IID977; Ent. cloacae IID977, 10^6 cells per ml, 37° C., 20 hours): 1.56 µg/mL; MIC (Kl. pneumoniae Y-41; 10^6 cells per ml): 3.13 µg/mL; MIC (Kl. pneumoniae Y-50; 20 hours): 0.78 µg/mL; MIC (Pro. mirabilis T-111; 10^6 cells per ml, 20 hours): 6.25 µg/mL; MIC (Pro. morganii T-216; 10^6 cells per ml, 20 hours): 3.13 µg/mL; MIC (Pro. vulgaris GN3027): 0.39 µg/mL; MIC (Ps. aeruginosa IFO3445; Ps. aeruginosa IFO3445, 10^6 cells per ml, 37° C., 20 hours): 12.5 µg/mL; MIC (Ps. aeruginosa S-68; Ps. aeruginosa S-68, 10^6 cells per ml, 37° C., 20 hours): 6.25 µg/mL; MIC (St. aureus FDA209P): 0.39 µg/mL; MIC (E. coli TK-3*): 1.56 µg/mL; MIC (Kl. pneumoniae Y-4*): 6.25 µg/mL; MIC (Ps. aeruginosa GN3379*): 12.5 µg/mL; MIC (St. aureus F-137*; St. aureus F-137, penicillinase-producing, 10^6 cells per ml): 0.39 µg/mL; MIC (E. coli GN5482**): ≤ 0.05 µg/mL; MIC (Pro. vulgaris GN76**; Pro. vulgaris GN76, cephalospolinase-producing, 10^6 cells per ml): 1.56 µg/mL; MIC (Ps. aeruginosa GN918**; GN918, 20 h): 3.13 µg/mL"
O=C(O)c1cn(-c2ccc(F)cc2)c(C=Cc2ccncc2)cc1=O,12.5 µg/mL,12.5 µg/mL,0.39 µg/mL,3.13 µg/mL,6.25 µg/mL,0.78 µg/mL,–,6.25 µg/mL,0.2 µg/mL,50 µg/mL,12.5 µg/mL,12.5 µg/mL,1.56 µg/mL,6.25 µg/mL,25 µg/mL,12.5 µg/mL,0.2 µg/mL,0.78 µg/mL,25 µg/mL,12.5 µg/mL,–
O=C(O)c1cn(-c2ccc(F)cc2)c(-c2ccc(Br)s2)cc1=O,1.56 µg/mL,–,1.56 µg/mL,–,12.5 µg/mL,3.13 µg/mL,12.5 µg/mL,–,0.39 µg/mL,50 µg/mL,25 µg/mL,1.56 µg/mL,6.25 µg/mL,25 µg/mL,25 µg/mL,–,0.39 µg/mL,–,100 µg/mL,–,"MIC (E. coli NIHJ JC-2; Escherichia coli, NIHJJC2, 20 h): 3.13 µg/mL; MIC (Ent. cloacae IID977; Enterobacter cloacae, IID977, 20 h): 12.5 µg/mL; MIC (Pro. morganii T-216; [18]): 6.25 µg/mL; MIC (St. aureus F-137*; Staphylococcus aureus, 20 h): 3.13 µg/mL; MIC (Pro. vulgaris GN76**; Proteus vulgaris, GN76, 20 h): 3.13 µg/mL"
Cc1nc(-c2ccc(-c3cc(=O)c(C(=O)O)cn3-c3ccc(F)cc3)cc2)co1,0.2 µg/mL,0.78 µg/mL,0.39 µg/mL,3.13 µg/mL,6.25 µg/mL,1.56 µg/mL,6.25 µg/mL,6.25 µg/mL,0.39 µg/mL,25 µg/mL,–,0.39 µg/mL,3.13 µg/mL,12.5 µg/mL,25 µg/mL,0.39 µg/mL,0.2 µg/mL,3.13 µg/mL,3.13 µg/mL,–,"MIC (Ps. aeruginosa S-68; Pseudomonas aeruginosa, S68, 20 h): 12.5 µg/mL"
CNc1ccc(-c2cc(=O)c(C(=O)O)cn2-c2ccc(O)cc2)cc1C,0.78 µg/mL,0.39 µg/mL,0.1 µg/mL,0.78 µg/mL,1.56 µg/mL,0.39 µg/mL,–,1.56 µg/mL,0.39 µg/mL,3.13 µg/mL,3.13 µg/mL,0.39 µg/mL,0.39 µg/mL,1.56 µg/mL,6.25 µg/mL,0.39 µg/mL,≤ 0.05 µg/mL,0.78 µg/mL,0.78 µg/mL,3.13 µg/mL,–
O=C(O)c1cn(-c2ccc(O)cc2)c(-c2ccc(-c3cccs3)cc2)cc1=O,0.1 µg/mL,0.1 µg/mL,≤ 0.05 µg/mL,0.39 µg/mL,1.56 µg/mL,0.2 µg/mL,–,–,≤ 0.05 µg/mL,–,3.13 µg/mL,≤ 0.05 µg/mL,0.39 µg/mL,0.78 µg/mL,3.13 µg/mL,≤ 0.05 µg/mL,≤ 0.05 µg/mL,0.2 µg/mL,6.25 µg/mL,0.39 µg/mL,"MIC (Pro. morganii T-216; [18]): 0.39 µg/mL; MIC (Ps. aeruginosa IFO3445; Pseudomonas aeruginosa, IFO3445, 20 h): 1.56 µg/mL"
O=C(O)c1cn(-c2ccc(O)cc2)c(-c2ccc(-n3cccc3)cc2)cc1=O,0.1 µg/mL,0.1 µg/mL,≤ 0.05 µg/mL,0.78 µg/mL,1.56 µg/mL,0.39 µg/mL,1.56 µg/mL,1.56 µg/mL,0.2 µg/mL,3.13 µg/mL,3.13 µg/mL,0.1 µg/mL,0.39 µg/mL,1.56 µg/mL,3.13 µg/mL,0.1 µg/mL,≤ 0.05 µg/mL,0.78 µg/mL,–,–,"MIC (Ps. aeruginosa GN918**; GN918, 20 h): 1.56 µg/mL"
O=C(O)c1cn(-c2ccc(O)cc2)c(-c2ccc3sccc3c2)cc1=O,0.1 µg/mL,0.2 µg/mL,≤ 0.05 µg/mL,0.78 µg/mL,0.78 µg/mL,0.2 µg/mL,–,–,≤ 0.05 µg/mL,1.56 µg/mL,3.13 µg/mL,–,0.39 µg/mL,0.78 µg/mL,1.56 µg/mL,0.39 µg/mL,≤ 0.05 µg/mL,0.2 µg/mL,0.39 µg/mL,0.78 µg/mL,MIC (Pro. morganii T-216; [18]): 0.39 µg/mL
